Where two headings read alike, the source gives them in different places. Marks after values point to notes of the source that are not given here.
Tests used:
A/J mice [1] = test: Resistance to high-dose etoposide (80 mg/kg) in A/J mice after STS and/or octreotide
Protocol: (§1) N J mice were pretreated with 1 mg/kg/day doses of human octreotide (OCT, ProSpec-Tany TechnoGene, Rehovot, Israel) for 4 days given slowly through the tail vein in a volume of 100 pl and then injected intravenously with murine neuroblastoma NXS2 cell line (200,000/mouse), as previously described. After tumor cell inoculum, some groups of animals were starved for 48 hours and then i.v. treated with 80 mg/kg of Etoposide Teva (Teva Pharma B.V., Mijdrecht, Holland), administered as a single dose. Additional daily doses of OCT were administered for 4 days after chemotherapy. Control groups of mice without diet starvation and OCT treatment were also investigated.
(§2) To determine toxicity and efficacy, mice were monitored routinely for weight loss and general behavior. […] Survival time was used as the main criterion for determining the efficacy of each treatment.
as §1, with “Six-to-seven-week-old female A/J mice, weighing 15-18 g were purchased from Harlan Laboratories (Harlan Italy, S. Pietro al Natisone, Italy) and housed in sterile enclosures under specific virus and antigen-free conditions. All procedures involving mice and their care were reviewed and approved by licensing and ethical committee of the National cancer Research Institute, Genoa, Italy, and by the Italian Ministry of Health. A/J” for “N J”, “μl” for “pl”, “injection,” for “inoculum,”

[2] = humans; cited from earlier work
athymic (Nude-nu) mice = test: Resistance to high-dose etoposide (100 mg/kg) in athymic (Nude-nu) mice; assay type: in vivo, mouse; settings: 100 mg/kg etoposide
Protocol: In other experiments, four-week old female athymic (Nude-nu) mice (Harlan), weighing 20-22 gr were used to evaluate stress resistance after a 48-hour starvation. These animals were i.v.-injected with 100 mg/Kg etoposide and then monitored routinely for weight loss and general behavior.

CD1 mice = test: Resistance to high-dose etoposide (110 mg/kg) in CD1 mice after 60-hour starvation; assay type: in vivo, mouse; settings: 110 mg/Kg etoposide i.v., with or without 60-hour STS
Protocol: In some experiments, four-week-old female CD1 mice (Harlan), weighing 18-20 g were used to evaluate stress resistance after 60 hours of starvation. These animals, i.v. injected with 110 mg/kg etoposide, were monitored routinely for weight loss and general behavior. Survival time was used as the main criterion for determining the differential stress resistance after short-term starvation.

NXS2 neuroblastoma cells [3] = settings: for No toxicity deaths: deaths / mice
From the text: (§3) The murine NX3IT28 cell line was generated by hybridization of the GD2-negative C1300 murine neuroblastoma cell line (A/J background) with murine dorsal root ganglional cells from C57BL16J mice, as previously described. The NXS2 sublime was then created by the selection of NX3IT28 cells with high GD2 expression.
Six-to-seven-week-old female NJ mice, weighing 15-18 g were purchased from Harlan Laboratories (Harlan Italy, S. Pietro al Natisone, Italy) and housed in sterile enclosures under specific virus and antigen-free conditions. All procedures involving mice and their care were reviewed and approved by licensing and ethical committee of the National Cancer Research Institute, Genoa, Italy, and by the Italian Ministry of Health.
as §1, §2
The statistical significance of differential survival between experimental groups of animals was determined by Kaplan-Meier curves and log-rank […] test by the use of StatDirect statistical software (Camcode, Ashwell, UK).
as §3, with “C57BL/6J” for “C57BL16J”, “subline” for “sublime”
as §1, with “Six-to-seven-week-old female A/J mice, weighing 15-18 g were purchased from Harlan Laboratories (Harlan Italy, S. Pietro al Natisone, Italy) and housed in sterile enclosures under specific virus and antigen-free conditions. All procedures involving mice and their care were reviewed and approved by licensing and ethical committee of the National cancer Research Institute, Genoa, Italy, and by the Italian Ministry of Health. A/J” for “N J”, “μl” for “pl”, “injection,” for “inoculum,”
The statistical significance of differential survival between experimental groups of animals was determined by Kaplan-Meier curves and log-rank (Peto) test by the use of StatDirect statistical software (CamCode, Ashwell, UK). In some experiments, four-week-old female CD1 mice (Harlan), weighing 18-20 g were used to evaluate stress resistance after 60-hour diet starvation. These animals, i.v. injected with 110 mg/kg etoposide, were monitored routinely for weight loss and general behavior. Survival time was used as the main criterion for determining the differential stress resistance after short-term starvation.

LID mice [4] = test: High-dose etoposide in LID mice; assay type: in vivo, mouse; settings: 100 mg/kg etoposide i.v.; difference in survival not significant
Protocol: FIG. 21. Resistance to high-dose chemotherapy in LID mice. All mice received an i.v. injection of 100 mg/kg etoposide and were single caged throughout the experiment. The toxicity, evaluated by (A) percent survival and (B) daily weight measurements, are shown. p-value was calculated by log rank test (p=0.06, n=10).

mice = test: Octreotide protection of mice against paraquat; assay type: in vivo, mouse; settings: octreotide treatment
NXS2 neuroblastoma cells [5] = test: Effect of octreotide on etoposide cytotoxicity in NXS2 cells, trypan blue; assay type: cell-based, mouse; settings: 10 or 50 micromolar octreotide, etoposide 1-3 μM, 72 hours
Protocol: FIG. 8. Survival of neuroblastoma (NXS2)-bearing mice. All mice were inoculated i.v. with 200,000 NXS2 cells/mouse on day 4. The different groups were treated as follows: A) Gr. 1: Control (16 mice)=i.v. inoculation with NSX2 tumor cells on day 4. Gr. 2: Oct (8 mice)=pre-treatment with 1 mg/kg/day octreotide for 4 days before and after tumor injection on day 4. Gr. 3: Oct/STS/Oct (8 mice)=pre-treatment with 1 mg/kg/day Oct before tumor cell injection on day 4+48-hour STS on days 4-6+post-treatment with 1 mg/kg/day Oct on days 8-11. Gr. […] Viability was determined by counting the cells with a contrast phase microscope. The proportion of dead (or living) cells was calculated by dividing the number of dead (or living) cells by the total number of cells per field. […]
NXS2 neuroblastoma cells treated with different concentrations of etoposide (1-3 μM) in presence or absence of octreotide (10 and 50 μM) for 72 hours were harvested by scraping, washed with complete medium, and incubated with trypan blue (0.04%; Sigma; St. Louis, Mo.) for 1 minute at 37° C. The cells were then placed in a Burker chamber (Tecnovetro, Monza Milan, Italy) and counted by viewing with a contrast phase microscope (Olympus Optical Co LTD, Tokyo, Japan). […] The proportion of dead (or living) cells was calculated by dividing the number of dead (or living) cells by the total number of cells per field.

LID mice [6] = test: Multiple treatments with doxorubicin in LID mice; assay type: in vivo, mouse; settings: doxorubicin 20 mg/kg then 28 mg/kg 22 days later
Protocol: FIG. 22. Resistance to multiple treatments with doxorubicin. Doxorubicin was intravenously administered at 20 mg/kg on Day 0 and 28 mg/kg on Day 22 (n=5). The toxicity, evaluated by (A) percent survival and (B) daily weight measurements, are shown. p-value was calculated by log rank test (p<0.05).

A/J mice [7] = test: High-dose doxorubicin toxicity in A/J mice with or without 48-hour STS; assay type: in vivo, mouse
Protocol: FIG. 20. A/J mice, weighing 18-20 g, were starved for 48 hours (STS), and followed by a single intravenous injection of high dose doxorubicin (16 mg/kg). The toxicity, evaluated by (A) percent survival and (B) daily weight measurements, are shown.

[8] = Table 1, mice with metastases / mice
[9] = Table 1, mice with metastases / mice, 200,000 NXS2 cells i.v.
[10] = Table 2, all mice followed until death, necropsy
[11] = Table 2, early etoposide toxicity deaths not considered
[12] = Table 2, followed until death, necropsy

SMILES	Survival Range (NXS2 neuroblastoma cells [3]; Table 1)	Hemorrhagic ascites (NXS2 neuroblastoma cells [3]; Table 1, affected mice / mice)	Adrenal glaud (metastases) (NXS2 neuroblastoma cells [3]; [8])	Kidneys (metastases) (NXS2 neuroblastoma cells [3]; [8])	Ovaries (metastases) (NXS2 neuroblastoma cells [3]; [8])	Liver (metastases) (NXS2 neuroblastoma cells [3]; [9])	Survival Range (NXS2 neuroblastoma cells [3]; Table 2)	Liver (metastases) (NXS2 neuroblastoma cells [3]; [10])	No toxicity deaths (NXS2 neuroblastoma cells [3]; Table 2)	Median survival (NXS2 neuroblastoma cells [3]; [11])	Adrenal gland (metastases) (NXS2 neuroblastoma cells [3]; [12])	Hemorrhagic ascites (NXS2 neuroblastoma cells [3]; [12])	Kidneys (metastases) (NXS2 neuroblastoma cells [3]; [12])	Ovaries (metastases) (NXS2 neuroblastoma cells [3]; [12])	further results
COc1cc([C@@H]2c3cc4c(cc3[C@@H](O[C@@H]3O[C@@H]5CO[C@@H](C)O[C@H]5[C@H](O)[C@H]3O)[C@H]3COC(=O)[C@H]23)OCO4)cc(OC)c1O [Eto, etoposide]	87 to 90 days	1/3*	0/3*	1/3*	1/3*	1/3*	87 to 140 days	3/3	3/6	130 days	0/3	3/3	3/3	0/3	mice killed by etoposide (A/J mice [1]; 80 mg/Kg etoposide i.v., A/J mice): 43%; weight lost in the four days after etoposide treatment (A/J mice [1]; 80 mg/Kg etoposide, control mice): approximately 20%; excreted within 48 hours [2]: up to 90%; mice killed by etoposide (athymic (Nude-nu) mice; nude mice): 56%; weight change after etoposide (athymic (Nude-nu) mice; nude mice): lost weight; mice killed by etoposide (CD1 mice): all; day until which mice did not develop tumors (NXS2 neuroblastoma cells [3]; NXS2-injected mice without STS): 80 days; Median survival (days) (NXS2 neuroblastoma cells [3]; Table 1): 90* days; resistance of LID mice compared to controls (LID mice [4]): less resistant
C[C@@H](O)[C@@H]1NC(=O)[C@H](CCCCN)NC(=O)[C@@H](Cc2c[nH]c3ccccc23)NC(=O)[C@H](Cc2ccccc2)NC(=O)[C@@H](NC(=O)[C@H](N)Cc2ccccc2)CSSC[C@@H](C(=O)N[C@H](CO)[C@@H](C)O)NC1=O [OCT, octreotide]	31 to 37 days	8/8	2/8	8/8	8/8	8/8	31 to 37 days	8/8	0/8	33 days	2/8	8/8	8/8	8/8	protection of mice against the superoxide generator paraquat (mice): sufficient to protect; protection against etoposide toxicity (A/J mice [1]; octreotide alone, mice): not sufficient to protect; mice that died (athymic (Nude-nu) mice; octreotide co-treatment and/or 48-hour starvation): all; sensitization of NXS2 cells to etoposide treatment (NXS2 neuroblastoma cells [5]): did not sensitize; Median survival (NXS2 neuroblastoma cells [3]; Table 1): 33 days; protection against NXS2-dependent death (NXS2 neuroblastoma cells [3]; octreotide alone, absence of short-term starvation): did not protect
COc1cccc2c1C(=O)c1c(O)c3c(c(O)c1C2=O)C[C@@](O)(C(=O)CO)C[C@@H]3O[C@H]1C[C@H](N)[C@H](O)[C@H](C)O1 [doxorubicin]															survival (LID mice [6]; LID mice): All LID mice survived; mice that died (LID mice [6]; control mice): 75%; survival (A/J mice [7]; 16 mg/Kg doxorubicin i.v. after 48-hour STS (n=5)): protected all mice; lethality (A/J mice [7]; 16 mg/Kg doxorubicin i.v., mice not pre-starved): killed all the mice
